Columns and labels:
[1] = system: philtrum skin (keratinized stratified epithelium); assay: Philtrum assay: duration of cooling on keratinized stratified epithelium; type: in vivo, human; conditions: applied to the philtrum skin at 5 mg/mL in Aquaphor ointment
Text: Bioassay on Keratinized Stratified Epithelium: Philtrum Assay
The philtrum is the midline groove above the border of the upper lip. The site of drug testing was the skin above the upper lip (above the vermilion border of the lips), on the philtrum, lateral to the philtrum until the nasolabial folds, and sometimes on the lower nostrils (subnasale). This part of the face is known to be densely innervated with cool/cold receptors, second only to the surfaces of the eyeball and anogenitalia. It is also known from the scientific literature that the area around the lips has a high density of “cold spots” (see, e.g., Dhaka et al., “Visualizing cold spots: TRPM8-expressing sensory neurons and their projections”, J. Neuroscience, Vol. 28, pp. 566-575, 2008).
To test for anti-nociceptive activity, the test substance is first dissolved (5 mg/mL) in an ointment (Aquaphor®, which is 41% petrolatum, and the rest mineral oil, ceresin and lanolin alcohol) and singly applied (40 to 70 mg) onto the philtrum skin surface using a plastic stick.
At this locus, cool and cold sensations in the skin may be experienced and rated for time of onset and intensity. The intensity of the subjective skin sensation is rated as 0, 1, 2 or 3 with: 0 as no change; 1 as slight coolness, or cold; 2 as clear-cut signal of coolness or cold; and 3 as robust cooling or cold. The intervals for recording are 5 to 10 minutes, until two successive zeroes are obtained. The onset of drug action is taken as the time to reach 2 units of coolness intensity, and offset of drug action is the time when coolness intensity drops below 2, after previously surpassing 2 units. The duration of cooling action is defined as the offset time minus the onset time.

[2] = system: ocular surface (non-keratinized stratified epithelium); assay: Ocular surface bioassay: duration of cooling after towelette wipe on closed eyelids; type: in vivo, human; conditions: for Non-Keratinized Stratified Epithelia (NKSE) Ocular Surface (min), duration of cooling: applied to the closed eyelids using a towellette at 1 mg/mL in 5%-95% v/v ethanol-distilled water; for rank order of duration of action of ocular wipes: six subjects, randomized double-blind study, three trials per wipe
Description: Bioassay on Non-Keratinized Stratified Epithelium: Ocular Surface
For testing on the ocular surface, a towelette containing the test compound was used as the delivery unit. The test compound was dissolved first in absolute ethanol and then distilled water was added to form a standard 1 mg/mL solution in a 3 to 5% by weight ethanol-water solution. Three mL of the test solution was then added to a 0.4 g cotton rectangle (50 mm×60 mm) (CS-being, Daisan Cotton, Japan) and individually sealed with a vacuum apparatus (Foodsaver®, Jarden Corp.). Samples were stored in a freezer or refrigerator and thawed to room temperature before use. Wiping with the cotton pad delivers 40 to 45 μL of liquid composition to the closed eyelids (˜20 to 22 μL per eye surface). Thus, if the concentration of the test compound was 1 mg/mL, the dose delivered to both eyes is a total of ˜40 to 42 μg, or ˜20 μg per eye. The presence or absence of cooling sensations felt on the ocular surface was noted as being present or absent at 5 to 10 minute intervals until no coolness was noticeable in two successive test intervals. Only the duration of cooling on the ocular surface was recorded, without an attempt to quantify the intensity of the sensation.

[3] = system: oropharyngeal surface (non-keratinized stratified epithelium); assay: Oropharyngeal surface bioassay: ODT followed by chili pepper sauce challenge; type: in vivo, human; design: key to Non-Keratinized Stratified Epithelia (NKSE) Oropharyngeal Surface, attenuation of chili pepper sauce irritation: If there was no attenuation of the challenge stimuli, the score was (0); if there was partial inhibition, the score was (+); if there was complete attenuation of the irritant signal, the score was (++); conditions: for Non-Keratinized Stratified Epithelia (NKSE) Oropharyngeal Surface, attenuation of chili pepper sauce irritation: ODT containing 2.5 to 3 mg of active ingredient, chili pepper sauce 45 minutes later; for effect on the response to the chili pepper sauce / sensation on the oropharyngeal surface: ODT; for effect on the response to the chili pepper sauce: same test conditions
Text: Bioassay on Non-Keratinized Stratified Epithelium: Oropharyngeal Surface
A number of irritants have been evaluated for evoking the cough sensation as a measure of pharygeal sensitivity (see, e.g., Morice et al., 2001, “Cough Challenge in the Assessment of Cough Reflex”, Brit. J. Clin. Pharmacol., Vol. 52, pp. 365-375). Usually, citric acid or capsaicin is delivered via the inhalation route to volunteers and the number of coughs counted. […] The chili pepper sauce mixes with the saliva and the saliva is then deposited on the posterior oropharynx. The chili pepper sauce used was Yank Sing® Chili Pepper Sauce (YS Gourmet Productions, Inc., PO Box 26189, San Francisco, Calif. 94126) and is a well-known condiment for use with dim sum (Chinese tea lunch). The sensations associated with the chili pepper sauce are located in the posterior wall of the mouth and are clearly recognized by the test subject and associated with a desire to clear the throat.
The ODT was formulated by taking an ingredient, dissolving it in absolute ethanol, and then adding 10% by weight of maltitol, and 90% by weight of mannitol, and then an equal volume of distilled water. The mixture was the stirred with a glass rod, and dispensed onto a piece of wax paper with a disposable plastic pipette. The individual dried tablets weighed on average 150 mg each and when on the dorsal surface of the tongue, dissolved completely in saliva and coated the oropharyngeal surface. On average, the amount of the test substance was 2.5 to 3 mg per tablet.
To test for anti-nociceptive activity, the ODT containing the test compound was first administered onto the dorsal surface of the tongue; 45 to 50 minutes later, the chili-pepper sauce challenge is administered. At this time, the coolness sensations from the test compound have dissipated and the test is to determine if an anti-nociceptive effect remains. Results were reported as follow: If there was no attenuation of the challenge stimuli, the score was (0), if there was partial inhibition, the score was (+), and if there was complete attenuation of the irritant signal, the score was (++). In the presence of an ODT containing an active ingredient that results in a (++) score, the irritative signals were completely absent, yet the salty taste used in the soy sauce of the condiment could be readily identified and tasted.
In one formulation (used in the biological evaluation studies described herein), orally disintegrating tablets (ODTs) were prepared using an 80:20 by weight mixture of mannitol-maltitol (Pearlitol™ and Sweetpearl™, Roquette Freres, France). This carrier has the advantage of completely masking bitter tastes that might be present in some of the test compounds. The test compound was first mixed with the mannitol-maltitol using a mortar and pestle, and then suspended in an equal volume of 10:90 v/v ethanol-distilled water. A disposable pipette was then used to aliquot the liquid mixture onto a sheet of wax paper and dried at room temperature. The dried tablets were then weighed and sorted. It was found by experiment that an 80 mg tablet containing 2 to 3 mg of test compound dissolved within 15 seconds when placed on the dorsal surface of the tongue and provided a good test dose.

[4] = system: cough; assay: Study 5: ODT in a smoker with chili pepper induced coughing fit; type: in vivo, human; conditions: two ODT tablets (2.5 mg each); one subject
Description: A venture capitalist lived a stress-filled life and smoked two packs of cigarettes per day. […] They tried the ODT containing 2.5 mg of Gly-O-iPr and said that it felt great, but they were afraid that if they used it, they would smoke more. Later that evening, they went to a banquet of Northern Chinese cuisine and they started coughing when they ate a piece of fish that was heavily spiced with chili peppers. Everyone at the dinner table was alarmed by their coughing fit which was quite intense and made their face turn bright red.

[5] = system: dry, scratchy throat with cough; assay: Study 4: chewing gum and ODT in a subject with scratchy throat and cough; type: in vivo, human
Text: A person's child moved away from their neighborhood to go to college and they became responsible for taking care of their two cats. Initially everything was all right, but then they became sensitized to the litter box dust generated when they were cleaning after the cats. They developed a dry, scratchy throat with cough, and this was severely aggravated by their seasonal allergy to grass pollen, so that they were constantly clearing their throat. […] After about two weeks of coughing and discomfort, they agreed to try Gly-O-iPr, first spread as 3 mg per wafer of Wrigley spearmint chewing gum, and then later formulated in an orally disintegrating tablet at 3 mg per unit dose. The medicated chewing gum and the ODT both provided relief within five minutes after administration. The sense of discomfort in the throat was attenuated and the effect lasted for about four hours and the dose could be repeated with the same beneficial effect. This individual preferred the ODT method of delivery as they considered this more efficient than chewing gum. After using the ODT containing Gly-O-iPr for ten days on an “as-needed basis” […] cough and scratchy throat disappeared and they are now well.

[6] = system: pharyngeal and esophageal receptors; assay: Cooling sensations in the chest after Gly-O-iPr with or without icilin; design: species or system human; conditions: in vivo
Text: The cooling sensations in the chest that result from the Gly-O-iPr/icilin combination may provide symptomatic relief of discomfort in the airways (larynx, trachea, bronchi) in conditions such as asthma and COPD.

[7] = system: allergic conjunctivitis; assay: Study 3: eye wipes in a subject with allergic conjunctivitis; type: in vivo, human
Text: A laboratory scientist suffered from seasonal allergic conjunctivitis. This condition was severely aggravated when […] started doing experiments with laboratory animals (rats and mice) and […] became sensitized to the associated allergens. The conjunctivitis was not relieved by oral or topical eye drops containing antihistamines and the subject was reluctant to consider the use of anti-inflammatory steroid ointments. Upon examination, their eyes were blood-shot and watery and they kept rubbing their eyelids with their fingers even though they knew this action may further aggravate the itch and discomfort. They volunteered to try eye wipes containing 1.0 mg/mL of Gly-O-iPr. The relief of itch and discomfort was obtained within 5 minutes and lasted for at least four hours.

[8] = system: Salmonella typhimurium tester strain TA1535; assay: Ames test in TA1535 with and without S9-mix (Notox)
[9] = system: dorsal surface of the tongue; conditions: 6 subjects; filter paper on dorsal surface of tongue, 30 seconds; cited from earlier work
[10] = system: TA1535 strain; conditions: MSDS Number 2984; cited from earlier work
[11] = 3 mg per chewing gum wafer or 3 mg ODT, one subject

Structure (SMILES)	Keratinized Stratified Epithelia Philtrum Skin (min), duration of cooling [1]	Non-Keratinized Stratified Epithelia (NKSE) Ocular Surface (min), duration of cooling [2]	rank order of duration of action of ocular wipes [2]	Non-Keratinized Stratified Epithelia (NKSE) Oropharyngeal Surface, attenuation of chili pepper sauce irritation [3]	effect on the response to the chili pepper sauce [3]	sensation on the oropharyngeal surface [3]	also measured
CCCOC(=O)CNC(=O)[C@@H]1C[C@H](C)CC[C@H]1C(C)C [Gly-O-nPr, [((1R,2S,5R)-2-isopropyl-5-methyl-cyclohexanecarbonyl)-amino]-acetic acid n-propyl ester]	42 min	54 min	Gly-O-iPr>>Gly-O-nPr>Gly-O-Et	0	not effective		
CC(C)OC(=O)CNC(=O)[C@@H]1C[C@H](C)CC[C@H]1C(C)C [Gly-O-iPr, [((1R,2S,5R)-2-isopropyl-5-methyl-cyclohexanecarbonyl)-amino]-acetic acid isopropyl ester]	27 min	300 min	Gly-O-iPr>>Gly-O-nPr>Gly-O-Et	++	blocked the response to the chili pepper sauce	refreshing cooling sensation	duration of cooling effect on the ocular surface, on average ([2]; 1 mg/mL): 5 h; duration of cooling on the ocular surface ([2]; test concentration increased to 1.5 mg/mL): about 6.5 hours; effect on coughing fit [4]: the cough stopped within a few minutes; duration of attenuated throat discomfort [5, 11]: about four; time to relief after administration [5, 11]: five; cough and scratchy throat ([5]; ODT as needed for ten days): disappeared; cooling sensations in the chest [6]: less effective; time to relief of itch and discomfort ([7]; eye wipes containing 1.0 mg/mL, one subject): ≤ 5 min; over-all itchiness and redness ([7]; wipes as needed for three days): reduced significantly; mutagenic activity, conclusion ([8]; TA1535, 3 to 5000 μg/plate, absence and presence of S9-mix): not mutagenic; bacterial background lawn ([8]; any of the concentrations tested (3 to 5000 μg/plate)): not reduced; precipitation on the plates ([8]; top dose of 5000 μg/plate, dissolved in DMSO): did not precipitate
CC(C)[C@@H]1CC[C@@H](C)C[C@H]1O [(−)-menthol, (1R,2S,5R)-2-isopropyl-5-methyl-cyclohexanol]							average Threshold for cooling on the tongue [9]: 0.25 µg
CCCCOC(=O)CNC(=O)[C@@H]1C[C@H](C)CC[C@H]1C(C)C [Gly-O-nBu, [((1R,2S,5R)-2-isopropyl-5-methyl-cyclohexanecarbonyl)-amino]-acetic acid n-butyl ester]	38 min	35 min		0			
CCOC(=O)CNC(=O)[C@@H]1C[C@H](C)CC[C@H]1C(C)C [Gly-O-Et, [((1R,2S,5R)-2-isopropyl-5-methyl-cyclohexanecarbonyl)-amino]-acetic acid ethyl ester]	24 min	15 min	Gly-O-iPr>>Gly-O-nPr>Gly-O-Et	0	not effective	refreshing cooling sensation	mutagenicity, Ames test [10]: weakly mutagenic; increase in duration of cooling on the ocular surface ([2]; concentration increased from 1 mg/mL to 2 mg/mL): 15 min; increase in duration of cooling on the ocular surface ([2]; concentration increased from 1 mg/mL to 5 mg/mL): 22 min
COC(=O)CNC(=O)[C@@H]1C[C@H](C)CC[C@H]1C(C)C [Gly-O-Me, [((1R,2S,5R)-2-isopropyl-5-methyl-cyclohexanecarbonyl)-amino]-acetic acid methyl ester]	10 min	5 min		0			

From US8426463B2, “[((1R,2S,5R)-2-isopropyl-5-methyl-cyclohexanecarbonyl)-amino]-acetic acid isopropyl ester and related compounds and their use in therapy” (priority 2011, dated 2013)
